Results reported in US20050288273A1, “Antibacterial agents” (priority 2003, published 2005).
In brackets after ≈: the same amount, converted by molar mass.

Assays:
M. catarrhalis BC3534 = experiment: Antibacterial assay (MIC), standard microtitration, Gram negative; format: cell-based; settings: Gram negative bacteria; for MIC: Moraxella catarrhalis, BC3534, read-out: Minimum Inhibitory Concentrations M. catarrhalis BC3534
From the text: (§1) Test A—Antibacterial Assays

H. influenzae HI3542 = experiment: as above; format: cell-based; settings: Gram negative bacteria; for MIC: Haemophilus influenzae, HI3542, read-out: Minimum Inhibitory Concentrations H. influenzae HI3542
From the text: as §1

E. coli Tol C = experiment: as above; format: cell-based; settings: for MIC: Escherichia coli, read-out: Minimum Inhibitory Concentrations E. coli Tol C; for Minimum Inhibitory Concentrations E. coli Tol C: Gram negative bacteria
From the text: as §1

E. faecalis MGH-2 = experiment: Antibacterial assay (MIC), standard microtitration, Gram positive; format: cell-based; settings: Gram positive bacteria; for MIC: Enterococcus faecalis, MGH2, read-out: Minimum Inhibitory Concentrations E. faecalis MGH-2
From the text: as §1

S pyogenes C203 = experiment: as above; format: cell-based; settings: Gram positive bacteria; for MIC: read-out: Minimum Inhibitory Concentrations S pyogenes C203
From the text: as §1

S. aureus UC-76 = experiment: as above; format: cell-based; settings: Gram positive bacteria; for MIC: Staphylococcus aureus, UC76, read-out: Minimum Inhibitory Concentrations S. aureus UC-76
From the text: as §1

## CC(=O)NC[C@H]1CN(c2ccc3c(c2)CCCc2c(C)n[nH]c2-3)C(=O)O1 [Example 99, (S)-N-[3-(3-Methyl-1,4,5,6-tetrahydro-1,2-diaza-benzo[e]azulen-8-yl)-2-oxo-oxazolidin-5-ylmethyl]-acetamide]
M. catarrhalis BC3534
  MIC: 4 µg/mL (≈ 11.3 µM)
H. influenzae HI3542
  MIC: 4 µg/mL (≈ 11.3 µM)
E. coli Tol C
  MIC: > 64 µg/mL
E. faecalis MGH-2
  MIC: 1 µg/mL (≈ 2.82 µM)
S pyogenes C203
  MIC: 0.5 µg/mL (≈ 1.41 µM)
S. aureus UC-76
  MIC: 1 µg/mL (≈ 2.82 µM)

## CC(=O)NC[C@H]1CN(c2ccc3c(c2)-c2[nH]ncc2CCC3)C(=O)O1 [Example 1, (S)-N-[2-Oxo-3-(1,4,5,6-tetrahydro-1,2-diaza-benzo[e]azulen-9-yl)oxalidin-5-ylmethyl]acetamide]
M. catarrhalis BC3534
  Minimum Inhibitory Concentrations M. catarrhalis BC3534: >64 µg/mL
H. influenzae HI3542
  Minimum Inhibitory Concentrations H. influenzae HI3542: >64 µg/mL
E. coli Tol C
  Minimum Inhibitory Concentrations E. coli Tol C: >64 µg/mL
E. faecalis MGH-2
  Minimum Inhibitory Concentrations E. faecalis MGH-2: >64 µg/mL
S pyogenes C203
  Minimum Inhibitory Concentrations S pyogenes C203: >64 . . . μg/mL
S. aureus UC-76
  Minimum Inhibitory Concentrations S. aureus UC-76: >64 µg/mL

## CCNC(=O)NC[C@H]1CN(c2ccc3c(c2)CCCc2cnoc2-3)C(=O)O1
other
  melting point: 193 to 196 °C

## Cl.NC[C@H]1CN(c2ccc3c(c2)CCCc2cn[nH]c2-3)C(=O)O1
other
  melting point: 201 to 223 °C

## O=C(CC1CCCC1)NC[C@H]1CN(c2ccc3c(c2)CCCc2cn[nH]c2-3)C(=O)O1
other
  melting point: 205 to 208 °C

## O=C1O[C@@H](COc2ccon2)CN1c1ccc2c(c1)CCCc1cnoc1-2 [Example 159, (R)-3-(5,6-Dihydro-4H-1-oxa-2-aza-benzo[e]azulen-8-yl)-5-(isoxazol-3-yloxymethyl)-oxazolidin-2-one]
E. faecalis MGH-2
  MIC: 2 µg/mL (≈ 5.44 µM)
S pyogenes C203
  MIC: 2 µg/mL (≈ 5.44 µM)
S. aureus UC-76
  MIC: 4 µg/mL (≈ 10.9 µM)

## O=C1O[C@@H](CNC(=O)C(F)(F)F)CN1c1ccc2c(c1)CCCc1cnoc1-2 (stereo in doubt)
other
  melting point: 203 to 205 °C

## CC(=O)NC[C@H]1CN(c2ccc3c(c2)CCCc2c(-c4ccncc4)n[nH]c2-3)C(=O)O1 [Example 96, (S)-N-[2-Oxo-3-(3-pyridin-4-yl-1,4,5,6-tetrahydro-1,2-diaza-benzo[e]azulen-8-yl)-oxazolidin-5-ylmethyl]-acetamide]
M. catarrhalis BC3534
  MIC: 2 µg/mL (≈ 4.79 µM)
H. influenzae HI3542
  MIC: 4 µg/mL (≈ 9.58 µM)
E. coli Tol C
  MIC: > 64 µg/mL
E. faecalis MGH-2
  MIC: 1 µg/mL (≈ 2.4 µM)
S pyogenes C203
  MIC: 0.25 µg/mL (≈ 0.599 µM)
S. aureus UC-76
  MIC: 2 µg/mL (≈ 4.79 µM)

## CCOC(=O)NC[C@H]1CN(c2ccc3c(c2)CCCc2cn[nH]c2-3)C(=O)O1
other
  melting point: 122 to 126 °C

## O=C(NC[C@H]1CN(c2ccc3c(c2)CCCc2cnoc2-3)C(=O)O1)C(F)F
other
  melting point: 145 to 180 °C

## O=C1O[C@@H](COc2ccon2)CN1c1ccc2c(c1)CCCc1cn[nH]c1-2 [Example 158, (R)-5-(Isoxazol-3-yloxymethyl)-3-(1,4,5,6-tetrahydro-1,2-diaza-benzo[e]azulen-8-yl)-oxazolidin-2-one]
M. catarrhalis BC3534
  MIC: 8 µg/mL (≈ 21.8 µM)
H. influenzae HI3542
  MIC: > 64 µg/mL
E. coli Tol C
  MIC: > 64 µg/mL
E. faecalis MGH-2
  MIC: 2 µg/mL (≈ 5.46 µM)
S pyogenes C203
  MIC: 1 µg/mL (≈ 2.73 µM)
S. aureus UC-76
  MIC: 1 µg/mL (≈ 2.73 µM)

## CCOC(=O)NC[C@H]1CN(c2ccc3c(c2)CCCc2cnoc2-3)C(=O)O1
other
  melting point: 181 to 183 °C

## O=C(NC[C@H]1CN(c2ccc3c(c2)CCCc2cnoc2-3)C(=O)O1)C1CC1
other
  melting point: 211 to 215 °C

## O=C(CC1CC1)NC[C@H]1CN(c2ccc3c(c2)CCCc2cnoc2-3)C(=O)O1
other
  melting point: 187 to 191 °C

## CC(=O)NC[C@H]1CN(c2ccc3c(c2)CCCc2c(-c4ccc(F)cc4)n[nH]c2-3)C(=O)O1 [Example 95, (S)-N-{3-[3-(4-Fluoro-phenyl)-1,4,5,6-tetrahydro-1,2-diaza-benzo[e]azulen-8-yl]-2-oxo-oxazolidin-5-ylmethyl}-acetamide]
M. catarrhalis BC3534
  MIC: 1 µg/mL (≈ 2.3 µM)
H. influenzae HI3542
  MIC: 8 µg/mL (≈ 18.4 µM)
E. coli Tol C
  MIC: > 64 µg/mL
E. faecalis MGH-2
  MIC: 0.5 µg/mL (≈ 1.15 µM)
S pyogenes C203
  MIC: 0.5 µg/mL (≈ 1.15 µM)
S. aureus UC-76
  MIC: 4 µg/mL (≈ 9.21 µM)

## CN(C)/C=C1/CCCc2cc(N3C[C@H](CNC(=O)OC(C)(C)C)OC3=O)ccc2C1=O (stereo in doubt)
other
  melting point: 157 to 160 °C

## O=C(CC1CCCC1)NC[C@H]1CN(c2ccc3c(c2)CCCc2cnoc2-3)C(=O)O1
other
  melting point: 193 to 195 °C

## O=C(NC[C@H]1CN(c2ccc3c(c2)CCCc2cn[nH]c2-3)C(=O)O1)C1CC1
other
  melting point: 224 to 227 °C

## O=C(CC1CCCC1)NC[C@H]1CN(c2ccc3c(c2)CCCc2cnn(C(=O)CC4CCCC4)c2-3)C(=O)O1
other
  melting point: 165 to 167 °C

## CC(=O)NC[C@H]1CN(c2ccc3c(c2)CCCc2c(C(F)(F)F)n[nH]c2-3)C(=O)O1 [Example 97, (S)-N-[2-Oxo-3-(3-trifluoromethyl-1,4,5,6-tetrahydro-1,2-diaza-benzo[e]azulen-8-yl)-oxazolidin-5-ylmethyl]-acetamide]
M. catarrhalis BC3534
  MIC: 2 µg/mL (≈ 4.9 µM)
H. influenzae HI3542
  MIC: > 4 µg/mL
E. coli Tol C
  MIC: > 64 µg/mL
E. faecalis MGH-2
  MIC: 1 µg/mL (≈ 2.45 µM)
S pyogenes C203
  MIC: 0.5 µg/mL (≈ 1.22 µM)
S. aureus UC-76
  MIC: 1 µg/mL (≈ 2.45 µM)

## O=C(NC[C@H]1CN(c2ccc3c(c2)CCCc2cnoc2-3)C(=O)O1)c1ccccc1
other
  melting point: 240 to 245 °C

## (S)-N-[3-(2-Benzyl-2,4,5,6-tetrahydro-1,2-diaza-benzo[e]azulen-8-yl)-2-oxo-oxazolidin-5-ylmethyl]-acetamide and (S)-N-[3-(1-Benzyl-1,4,5,6-tetrahydro-1,2-diaza-benzo[e]azulen-8-yl)-2-oxo-oxazolidin-5-ylmethyl]-acetamide [Example 123]
M. catarrhalis BC3534
  Minimum Inhibitory Concentrations M. catarrhalis BC3534: >64 µg/mL
H. influenzae HI3542
  Minimum Inhibitory Concentrations H. influenzae HI3542: >64 µg/mL
E. coli Tol C
  Minimum Inhibitory Concentrations E. coli Tol C: >64 µg/mL

## CCC(=O)NC[C@H]1CN(c2ccc3c(c2)CCCc2cnoc2-3)C(=O)O1
other
  melting point: 185 to 186 °C

## CC(C)C(=O)NC[C@H]1CN(c2ccc3c(c2)CCCc2cnn(C(=O)C(C)C)c2-3)C(=O)O1
other
  melting point: 75 to 80 °C

## O=C(NC[C@H]1CN(c2ccc3c(c2)CCCc2cn[nH]c2-3)C(=O)O1)c1ccccc1
other
  melting point: 105 to 125 °C

## O=C1O[C@@H](COc2ccccn2)CN1c1ccc2c(c1)CCCc1cnoc1-2 [Example 165, (R)-3-(5,6-Dihydro-4H-1-oxa-2-aza-benzo[e]azulen-8-yl)-5-(pyridin-2-yloxymethyl)-oxazolidin-2-one]
M. catarrhalis BC3534
  MIC: > 64 µg/mL
H. influenzae HI3542
  MIC: > 64 µg/mL
E. coli Tol C
  MIC: > 64 µg/mL
E. faecalis MGH-2
  MIC: 4 µg/mL (≈ 10.6 µM)
S pyogenes C203
  MIC: 2 µg/mL (≈ 5.3 µM)
S. aureus UC-76
  MIC: 4 µg/mL (≈ 10.6 µM)

## Cl.NC[C@H]1CN(c2ccc3c(c2)CCCc2cnoc2-3)C(=O)O1
other
  melting point: 245 to 258 °C

## Br.CC(=O)NC[C@H]1CN(c2ccc3c(c2)CCCc2sc(N)nc2-3)C(=O)O1 [Example 186, (S)-N-[3-(2-Amino-5,6-dihydro-4H-3-thia-1-aza-benzo[e]azulen-8-yl)-2-oxo-oxazolidin-5-ylmethyl]-acetamide hydrobromic acid salt]
M. catarrhalis BC3534
  MIC: 8 µg/mL
H. influenzae HI3542
  MIC: 4 µg/mL
E. coli Tol C
  MIC: > 64 µg/mL
E. faecalis MGH-2
  MIC: 1 µg/mL
S pyogenes C203
  MIC: 1 µg/mL
S. aureus UC-76
  MIC: 2 µg/mL

## O=C(CC(F)(F)F)NC[C@H]1CN(c2ccc3c(c2)CCCc2cnoc2-3)C(=O)O1
other
  melting point: 150 to 186 °C

## O=C(CC(F)(F)F)NC[C@H]1CN(c2ccc3c(c2)CCCc2cn[nH]c2-3)C(=O)O1
other
  melting point: 243 to 245 °C

## CC(=S)NC[C@H]1CN(c2ccc3c(c2)CCCc2cn[nH]c2-3)C(=O)O1
other
  melting point: 190 to 195 °C

## O=C(NC[C@H]1CN(c2ccc3c(c2)CCCc2cn[nH]c2-3)C(=O)O1)C(F)F
other
  melting point: 147 to 150 °C

## CC(=O)NC[C@H]1CN(c2ccc3c(c2)CCCc2cn(C)nc2-3)C(=O)O1 [Example 122, (S)-N-[3-(2-Methyl-2,4,5,6-tetrahydro-1,2-diaza-benzo[e]azulen-8-yl)-2-oxo-oxazolidin-5-ylmethyl]-acetamide]
M. catarrhalis BC3534
  MIC: > 64 µg/mL
H. influenzae HI3542
  MIC: > 64 µg/mL
E. coli Tol C
  MIC: > 64 µg/mL
E. faecalis MGH-2
  MIC: 1 µg/mL (≈ 2.82 µM)
S pyogenes C203
  MIC: 0.5 µg/mL (≈ 1.41 µM)
S. aureus UC-76
  MIC: 1 µg/mL (≈ 2.82 µM)

## O=C(CC1CC1)NC[C@H]1CN(c2ccc3c(c2)CCCc2cn[nH]c2-3)C(=O)O1
other
  melting point: 212 to 215 °C

## O=C(NC[C@H]1CN(c2ccc3c(c2)CCCc2cnn(C(=O)c4ccccc4)c2-3)C(=O)O1)c1ccccc1
other
  melting point: 75 to 95 °C

## CC(=O)NC[C@H]1CN(c2ccc3c(c2)-c2oncc2CCC3)C(=O)O1 [Example 4, (S)-N-[3-(5,6-dihydro-4H-1-oxa-2-aza-benzo[e]azulen-9-yl)-2-oxo-oxazolidin-5-ylmethyl]acetamide]
M. catarrhalis BC3534
  MIC: 1 µg/mL (≈ 2.93 µM)
H. influenzae HI3542
  MIC: 2 µg/mL (≈ 5.86 µM)
E. coli Tol C
  MIC: > 64 µg/mL
E. faecalis MGH-2
  MIC: 0.25 µg/mL (≈ 0.732 µM)
S pyogenes C203
  MIC: 0.125 µg/mL (≈ 0.366 µM)
S. aureus UC-76
  MIC: 0.5 µg/mL (≈ 1.46 µM)

## COC(=O)CC(=O)NC[C@H]1CN(c2ccc3c(c2)CCCc2cnoc2-3)C(=O)O1
other
  melting point: 205 to 217 °C

## CCC(=O)NC[C@H]1CN(c2ccc3c(c2)CCCc2cn[nH]c2-3)C(=O)O1
other
  melting point: 233 to 235 °C

## COC(=O)NC[C@H]1CN(c2ccc3c(c2)CCCc2cn[nH]c2-3)C(=O)O1
other
  melting point: 87 to 93 °C

## COC(=O)NC[C@H]1CN(c2ccc3c(c2)CCCc2cnoc2-3)C(=O)O1
other
  melting point: 166 to 168 °C

## CC(=O)NC[C@H]1CN(c2ccc3c(c2)CCCc2c(-c4ccccc4)n[nH]c2-3)C(=O)O1 [Example 98, (S)-N-[2-Oxo-3-(3-phenyl-1,4,5,6-tetrahydro-1,2-diaza-benzo[e]azulen-8-yl)-oxazolidin-5-ylmethyl]-acetamide]
M. catarrhalis BC3534
  MIC: 2 µg/mL (≈ 4.8 µM)
H. influenzae HI3542
  MIC: 8 µg/mL (≈ 19.2 µM)
E. coli Tol C
  MIC: > 64 µg/mL
E. faecalis MGH-2
  MIC: 0.5 µg/mL (≈ 1.2 µM)
S pyogenes C203
  MIC: 0.5 µg/mL (≈ 1.2 µM)
S. aureus UC-76
  MIC: 0.5 µg/mL (≈ 1.2 µM)

## CC(=S)NC[C@H]1CN(c2ccc3c(c2)CCCc2cnoc2-3)C(=O)O1
other
  melting point: 185 to 195 °C

## CC(C)(C)OC(=O)NC[C@H]1CN(c2ccc3c(c2)CCCc2cnoc2-3)C(=O)O1
other
  melting point: 180 to 184 °C

## CC(C)C(=O)NC[C@H]1CN(c2ccc3c(c2)CCCc2cnoc2-3)C(=O)O1
other
  melting point: 187 to 193 °C
